PubChem BioAssay (NCI)
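Growth conditions: 96-well plates. Treatment: test compound, 48 hours, 5 concentrations. Analysis: linear interpolation between bracketing concentrations; unreached endpoints set to highest concentration. Abbreviation: GI50, concentration required for 50% inhibition of growth. TGI marks complete inhibition of growth.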 Where a SMILES comes first, the peptide text is derived from it. [ ]: non-standard residue; d: D form. The star is where a group is joined. Palmitoyl = CCCCCCCCCCCCCCCC(=O)*; Cbz = O=C(OCc1ccccc1)*; Aib = CC(C)(N)C(=O)O; OBn = c1ccc(CO*)cc1

Key:
Experiment in all cases: DTP human tumour cell line panel, 48 h
EKVX NSCLC = system: EKVX NSCLC
LOX IMVI melanoma = system: LOX IMVI melanoma
A498 renal = system: A498 renal
UACC-257 melanoma = system: UACC-257 melanoma
NCI-H226 lung = system: NCI-H226 lung
SN12C renal = system: SN12C renal
T-47D breast = system: T-47D breast
NCI-H23 lung = system: NCI-H23 lung
A549 NSCLC = system: A549 NSCLC
RPMI-8226 leukemia = system: RPMI-8226 leukemia

COc1ccc(/C=N/NC(=O)c2ccc(O)c(CN(C)C)c2)cc1
TGI (EKVX NSCLC): > 100 µM | TGI (LOX IMVI melanoma): > 100 µM | TGI (A498 renal): 37.4 µM | TGI (UACC-257 melanoma): > 100 µM | TGI (NCI-H226 lung): > 100 µM | TGI (SN12C renal): > 100 µM | TGI (T-47D breast): > 100 µM | TGI (NCI-H23 lung): > 100 µM | TGI (A549 NSCLC): > 100 µM

COc1cc(C2c3cc4c(cc3[C@@H](Nc3ccccc3)C3COC(=O)[C@H]23)OCO4)cc(OC)c1O (stereo partly specified)
TGI (EKVX NSCLC): 8.47 µM | TGI (LOX IMVI melanoma): 3.38 µM | TGI (A498 renal): 1.65 µM | TGI (UACC-257 melanoma): 4.27 µM | TGI (NCI-H226 lung): 2.12 µM | TGI (RPMI-8226 leukemia): 2.23 µM | TGI (SN12C renal): 6.03 µM | TGI (NCI-H23 lung): 3.01 µM | TGI (A549 NSCLC): 1.82 µM

O=c1onc2n1-c1cc(Cl)ccc1C(=S)N1CSCC21 (stereo unspecified)
TGI (EKVX NSCLC): > 100 µM | TGI (LOX IMVI melanoma): > 100 µM | TGI (A498 renal): > 100 µM | TGI (UACC-257 melanoma): > 100 µM | TGI (NCI-H226 lung): > 100 µM | TGI (RPMI-8226 leukemia): > 100 µM | TGI (SN12C renal): > 100 µM | TGI (T-47D breast): > 100 µM | TGI (A549 NSCLC): > 100 µM

CC(C)C1=CC23CCC4C(C)(C(=O)O)CCCC4(C)C2CC1C1C(=O)N(CCCCCCN2C(=O)C4C5CC6C7(C)CCCC(C)(C(=O)O)C7CCC6(C=C5C(C)C)C4C2=O)C(=O)C13 (stereo unspecified)
TGI (EKVX NSCLC): 21.6 µM | TGI (A498 renal): 24.3 µM | TGI (RPMI-8226 leukemia): > 100 µM | TGI (SN12C renal): 32.4 µM | TGI (T-47D breast): 41.5 µM | TGI (NCI-H23 lung): 14.9 µM | TGI (A549 NSCLC): 45.3 µM

C=C1C(=O)[C@@]23CC[C@@H]4[C@@]5(C)CCC[C@@]4(OC5=O)[C@@]2(C)CC[C@@H]1C3
TGI (EKVX NSCLC): 11.8 µM | TGI (LOX IMVI melanoma): 2.96 µM | TGI (A498 renal): 11.8 µM | TGI (UACC-257 melanoma): 4.06 µM | TGI (NCI-H226 lung): 9.15 µM | TGI (SN12C renal): 23.5 µM | TGI (T-47D breast): 57.9 µM | TGI (NCI-H23 lung): 4.49 µM | TGI (A549 NSCLC): 36.3 µM

CSc1csc(-c2ccc(-c3ccc(-c4cc(SC)cs4)s3)s2)c1
TGI (EKVX NSCLC): > 100 µM | TGI (LOX IMVI melanoma): > 100 µM | TGI (UACC-257 melanoma): > 100 µM | TGI (NCI-H226 lung): > 100 µM | TGI (RPMI-8226 leukemia): > 100 µM | TGI (SN12C renal): > 100 µM | TGI (NCI-H23 lung): > 100 µM | TGI (A549 NSCLC): > 100 µM

O=C1NC(O)CCN1C1OC(CO)C(O)C1O (stereo unspecified)
TGI (EKVX NSCLC): > 250 µM | TGI (LOX IMVI melanoma): > 250 µM | TGI (A498 renal): > 250 µM | TGI (UACC-257 melanoma): > 250 µM | TGI (NCI-H226 lung): > 250 µM | TGI (RPMI-8226 leukemia): > 250 µM | TGI (SN12C renal): > 250 µM | TGI (NCI-H23 lung): > 250 µM | TGI (A549 NSCLC): > 250 µM

C=C(C)CNCCN
TGI (EKVX NSCLC): > 100 µM | TGI (LOX IMVI melanoma): > 100 µM | TGI (A498 renal): > 100 µM | TGI (UACC-257 melanoma): > 100 µM | TGI (NCI-H226 lung): > 100 µM | TGI (SN12C renal): > 100 µM | TGI (T-47D breast): > 100 µM | TGI (NCI-H23 lung): > 100 µM | TGI (A549 NSCLC): > 100 µM

CC(NC(=O)C(C)(C)NC(=O)C(CC(=O)OCc1ccccc1)NC(=O)OCc1ccccc1)C(N)=O (stereo unspecified) (Cbz-Asp(OBn)-[Aib]-Ala-NH2; configuration not given here)
TGI (EKVX NSCLC): > 100 µM | TGI (LOX IMVI melanoma): > 100 µM | TGI (UACC-257 melanoma): > 100 µM | TGI (NCI-H226 lung): > 100 µM | TGI (RPMI-8226 leukemia): > 100 µM | TGI (SN12C renal): > 100 µM | TGI (T-47D breast): > 100 µM | TGI (NCI-H23 lung): > 100 µM | TGI (A549 NSCLC): > 100 µM

CCCCCCCCCCCCCCCC(=O)N1CCCC1C(=O)NCC(=O)NC(Cc1ccccc1)C(=O)N1CCCC1C(=O)NC(CO)C(=O)NC(Cc1ccc(O)cc1)C(=O)NC(CCCCN)C(=O)NC(CC(C)C)C(=O)NC(CCCN=C(N)N)C(=O)N1CCCC1C(=O)NCC(N)=O (stereo unspecified) (Palmitoyl-PGFPSYKLRPG-NH2; configuration not given here)
GI50 (EKVX NSCLC): 15.7 µM | TGI (EKVX NSCLC): 44.5 µM | GI50 (A498 renal): 32.8 µM | TGI (A498 renal): 93.2 µM | GI50 (UACC-257 melanoma): 14.6 µM | TGI (UACC-257 melanoma): 31 µM | GI50 (NCI-H226 lung): 23.5 µM | TGI (NCI-H226 lung): 44.4 µM | GI50 (RPMI-8226 leukemia): 11.6 µM | TGI (RPMI-8226 leukemia): 29.3 µM | GI50 (T-47D breast): 17.9 µM | TGI (T-47D breast): 48.5 µM | GI50 (NCI-H23 lung): 18.7 µM | TGI (NCI-H23 lung): 36.6 µM | GI50 (A549 NSCLC): 17.5 µM | TGI (A549 NSCLC): 35.4 µM

O=C(OCC(Cl)(Cl)Cl)N1CC[C@H](C2CCCCC2)C1
TGI (EKVX NSCLC): 32.4 µM | TGI (LOX IMVI melanoma): 41.1 µM | TGI (UACC-257 melanoma): 38.7 µM | TGI (SN12C renal): > 100 µM | TGI (T-47D breast): 35.1 µM | TGI (NCI-H23 lung): 33.2 µM | TGI (A549 NSCLC): 36.1 µM
